Source: patent US20230016182A1, “EO/PO-MODIFIED 9-PHENYLACRIDINE PHOTOSENSITIZERS AND APPLICATION THEREOF” (Changzhou Tronly New Electronic Materials Co., Ltd., priority 2019, published 2023)

Assay: Photosensitizer solubility test in 2-butanone and PGMEA
Assay type: physicochemical
Details: Test temperature 25° C.; for Solubility in 2-butanone: solvent 2-butanone
From the text: Among them, 9-phenylacridine (denoted as C7, produced by CHANGZHOU TRONLY NEW ELECTRONIC MATERIALS CO., LTD.) was used for comparison.

Compound	Solubility in 2-butanone [g]	Solubility in PGMEA (solvent PGMEA) [g]
c1ccc(-c2c3ccccc3nc3ccccc23)cc1 [Product C7, 9-phenylacridine]	0.74	0.51
COCCOCCOCCOc1ccc(-c2c3ccccc3nc3ccccc23)cc1 [Product C1]	21.10	
